Reference: BindingDB's records for doi:10.1038/304065a0 (Hoechst Pharmaceutical Research Laboratories, 1983)

Molecular target: Histamine H2 receptor (Cavia porcellus, UniProt P47747)
Sequence (P47747 whole entry): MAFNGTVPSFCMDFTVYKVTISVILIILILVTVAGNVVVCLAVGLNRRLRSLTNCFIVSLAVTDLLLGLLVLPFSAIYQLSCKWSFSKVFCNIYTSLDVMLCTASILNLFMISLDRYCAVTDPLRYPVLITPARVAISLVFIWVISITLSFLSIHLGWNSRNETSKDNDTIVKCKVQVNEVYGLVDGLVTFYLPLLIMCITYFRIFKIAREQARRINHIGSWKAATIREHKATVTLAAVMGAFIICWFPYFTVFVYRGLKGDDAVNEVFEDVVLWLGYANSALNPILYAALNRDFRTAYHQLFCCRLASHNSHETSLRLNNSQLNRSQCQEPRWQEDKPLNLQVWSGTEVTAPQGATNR

Row | Structure (SMILES) | Ki [nM]
1 | NC(N)=Nc1nc(CSCCC(N)=NS(N)(=O)=O)cs1 | 12
2 | CN/C([CH-][N+](=O)[O-])=[NH+]\CCSCc1ccc(CN(C)C)o1 | 390
3 | CNC(=S)NCCCc1cnc[nH]1 | > 10000
4 | CNC(=S)NCCCCc1cnc[nH]1 [1-[4-(1H-imidazol-5-yl)butyl]-3-methylthiourea] | 3000
5 | Cc1nc[nH]c1CCN [2-(5-methyl-1H-imidazol-4-yl)ethan-1-amine] | > 10000
6 | Cc1[nH]cnc1CSCCNC(=N)NCCCc1c[nH]cn1 [2-[3-(1H-imidazol-5-yl)propyl]-1-(2-{[(5-methyl-1H-imidazol-4-yl)methyl]sulfanyl}ethyl)guanidine] | 63
7 | C/N=C(\S)NCCSCc1[nH]cnc1C [CAS_34839-70-8] | 510
8 | CN(C)CCCSC(=N)N [[3-(carbamimidoylsulfanyl)propyl]dimethylamine] | > 10000
